Laboratory results from ChEMBL document CHEMBL1148247, “Synthesis and histone deacetylase inhibitory activity of cyclic tetrapeptides containing a retrohydroxamate as zinc ligand” (Bioorg Med Chem Lett, 2004).
Each block holds one compound with its values, some of them ahead of it. Where a SMILES comes first, the peptide text is derived from it. [ ]: non-standard residue; d: D form. The star is where a group is joined. Asu = N[C@@H](CCCCCC(=O)O)C(=O)O; aIle = CC[C@@H](C)[C@H](N)C(=O)O; NHOH = ON*

What was measured:
Histone deacetylase = experiment: Inhibitory activity against histone deacetylases (HDAC) prepared from mouse melanoma B16/BL6 cells; format: cell-based
Mus musculus = species on record: Mus musculus; experiment: Effective concentration in histone deacetylases (HDAC) using p21 promoter assay
[1] = target: T1, Protein deacetylase HDAC6 (Mus musculus, UniProt Q9Z2V5); experiment: Inhibitory activity against histone deacetylase 6 prepared from mouse melanoma B16/BL6 cells; format: cell-based
T1 sequence (Q9Z2V5 whole entry): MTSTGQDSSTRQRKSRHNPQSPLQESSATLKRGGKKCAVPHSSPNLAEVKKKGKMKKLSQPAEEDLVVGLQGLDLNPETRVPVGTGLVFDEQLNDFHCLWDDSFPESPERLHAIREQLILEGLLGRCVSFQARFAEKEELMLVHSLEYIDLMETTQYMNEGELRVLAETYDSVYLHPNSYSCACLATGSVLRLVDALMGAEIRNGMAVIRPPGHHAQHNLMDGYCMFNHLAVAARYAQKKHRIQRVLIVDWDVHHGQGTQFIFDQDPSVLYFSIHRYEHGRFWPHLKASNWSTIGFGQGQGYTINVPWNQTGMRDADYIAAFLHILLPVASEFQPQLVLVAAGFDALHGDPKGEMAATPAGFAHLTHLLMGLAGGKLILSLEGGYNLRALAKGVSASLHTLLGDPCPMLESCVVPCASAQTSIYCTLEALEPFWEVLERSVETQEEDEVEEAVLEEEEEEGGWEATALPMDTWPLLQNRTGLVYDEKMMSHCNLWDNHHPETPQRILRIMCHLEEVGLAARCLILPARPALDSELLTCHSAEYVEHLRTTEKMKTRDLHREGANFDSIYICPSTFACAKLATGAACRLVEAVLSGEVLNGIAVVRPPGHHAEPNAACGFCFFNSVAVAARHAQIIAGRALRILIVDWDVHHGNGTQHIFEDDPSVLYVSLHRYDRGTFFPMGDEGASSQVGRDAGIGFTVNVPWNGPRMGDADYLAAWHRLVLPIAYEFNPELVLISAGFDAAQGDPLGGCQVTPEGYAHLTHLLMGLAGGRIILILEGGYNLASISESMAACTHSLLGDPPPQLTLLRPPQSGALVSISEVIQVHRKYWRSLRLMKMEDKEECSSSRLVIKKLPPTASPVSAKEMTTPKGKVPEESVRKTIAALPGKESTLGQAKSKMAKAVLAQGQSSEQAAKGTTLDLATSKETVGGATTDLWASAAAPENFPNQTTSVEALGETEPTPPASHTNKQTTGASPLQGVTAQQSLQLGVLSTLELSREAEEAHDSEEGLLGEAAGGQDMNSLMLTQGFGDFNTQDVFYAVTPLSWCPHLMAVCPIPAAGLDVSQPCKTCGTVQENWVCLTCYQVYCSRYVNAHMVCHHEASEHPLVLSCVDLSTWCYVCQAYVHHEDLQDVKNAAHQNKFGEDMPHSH

Histone deacetylase 8 = target: T2, Histone deacetylase 8 (Mus musculus, UniProt Q8VH37); experiment: Inhibitory activity against histone deacetylase 8 prepared from mouse melanoma B16/BL6 cells; format: cell-based
T2 sequence (Q8VH37 whole entry): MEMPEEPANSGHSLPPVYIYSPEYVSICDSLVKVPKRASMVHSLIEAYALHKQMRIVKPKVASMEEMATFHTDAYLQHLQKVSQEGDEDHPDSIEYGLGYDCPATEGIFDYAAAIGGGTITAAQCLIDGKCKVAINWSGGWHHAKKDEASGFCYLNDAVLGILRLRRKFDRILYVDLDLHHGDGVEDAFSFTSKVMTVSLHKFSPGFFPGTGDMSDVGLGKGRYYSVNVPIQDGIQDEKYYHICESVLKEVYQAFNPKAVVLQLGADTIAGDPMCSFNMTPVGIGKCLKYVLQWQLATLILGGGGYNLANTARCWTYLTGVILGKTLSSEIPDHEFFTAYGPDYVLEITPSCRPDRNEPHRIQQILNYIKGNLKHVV

Histone deacetylase 1 [2] = target: T3, Histone deacetylase 1 (Mus musculus, UniProt O09106)
T3 sequence (O09106 whole entry): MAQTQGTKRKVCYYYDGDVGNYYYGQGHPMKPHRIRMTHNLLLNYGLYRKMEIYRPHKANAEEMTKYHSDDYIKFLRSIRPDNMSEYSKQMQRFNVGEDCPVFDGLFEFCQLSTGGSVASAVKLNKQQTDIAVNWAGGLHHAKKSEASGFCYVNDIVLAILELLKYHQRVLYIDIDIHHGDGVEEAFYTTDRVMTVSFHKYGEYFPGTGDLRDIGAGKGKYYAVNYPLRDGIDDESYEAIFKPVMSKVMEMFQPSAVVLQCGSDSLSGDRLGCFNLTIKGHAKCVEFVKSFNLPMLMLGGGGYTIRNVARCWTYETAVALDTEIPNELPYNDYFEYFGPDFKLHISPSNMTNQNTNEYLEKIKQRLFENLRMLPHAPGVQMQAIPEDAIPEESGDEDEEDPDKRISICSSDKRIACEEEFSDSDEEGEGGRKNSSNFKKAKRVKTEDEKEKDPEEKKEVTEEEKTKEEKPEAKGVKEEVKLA
Description: (§1) Inhibitory activity against histone deacetylases (HDAC1) prepared from mouse melanoma B16/BL6 cells

Histone deacetylase 1 [3] = target: T3, Histone deacetylase 1; conditions: b16/bl6
Description: as §1

SMILES: CC(/C=C/C(=O)NO)=C\[C@@H](C)C(=O)c1ccc(N(C)C)cc1 [TRICHOSTATIN]
EC1000 (Mus musculus): 0.19 µM

SMILES: CC[C@@H](C)[C@@H]1NC(=O)[C@@H](Cc2ccc(OC)cc2)NC(=O)[C@H](CCCCCN(O)C=O)NC(=O)[C@H]2CCCCN2C1=O
IC50 [1]: 782 nM
IC50 (Histone deacetylase 8): 46 nM
IC50 (Histone deacetylase): 84 nM
IC50 (Histone deacetylase 1 [2]): 26 nM

SMILES: CC[C@@H](C)[C@@H]1NC(=O)[C@@H](Cc2ccc(OC)cc2)NC(=O)[C@H](CCCCN(O)C=O)NC(=O)[C@@H]2CCCCN2C1=O
IC50 (Histone deacetylase): 1392 nM

SMILES: CC[C@@H](C)[C@@H]1NC(=O)[C@@H](Cc2ccc(OC)cc2)NC(=O)[C@H](CCCCCC(=O)NO)NC(=O)[C@H]2CCCN2C1=O (cyclo([Asu](NHOH)[dY](Me)[aIle][dP]))
EC1000 (Mus musculus): 0.022 µM

SMILES: CC[C@@H](C)[C@@H]1NC(=O)[C@@H](Cc2ccc(OC)cc2)NC(=O)[C@H](CCCCCN(O)C=O)NC(=O)[C@H]2CCCN2C1=O
IC50 [1]: 178 nM
IC50 (Histone deacetylase 8): 59 nM
EC1000 (Mus musculus): 0.61 µM
IC50 (Histone deacetylase 1 [2]): 67 nM

SMILES: CC[C@@H](C)[C@@H]1NC(=O)[C@@H](Cc2ccc(OC)cc2)NC(=O)[C@H](CCCCN(O)C=O)NC(=O)[C@H]2CCCCN2C1=O
IC50 (Histone deacetylase): 957 nM

SMILES: CC[C@@H](C)[C@@H]1NC(=O)[C@@H](Cc2ccc(OC)cc2)NC(=O)[C@H](CCCCCN(O)C=O)NC(=O)[C@@H]2CCCCN2C1=O
IC50 (Histone deacetylase): 141 nM

SMILES: CC[C@H](C)[C@@H]1NC(=O)[C@@H](Cc2ccc(OC)cc2)NC(=O)[C@H](CCCCCC(=O)NO)NC(=O)[C@H]2CCCN2C1=O (cyclo([Asu](NHOH)[dY](Me)I[dP]))
IC50 (Histone deacetylase 1 [2]): 0.4 nM

SMILES: CC[C@@H](C)[C@@H]1NC(=O)[C@@H](Cc2ccc(OC)cc2)NC(=O)[C@H](CCCCCN(O)C=O)NC(=O)[C@@H]2CCCN2C1=O
IC50 ([1]; b16/bl6): 29 nM
IC50 (Histone deacetylase 8; b16/bl6): 34 nM
IC50 (Histone deacetylase 1 [3]): 33 nM

SMILES: CC[C@@H](C)[C@@H]1NC(=O)[C@@H](Cc2ccc(OC)cc2)NC(=O)[C@H](CCCCCCC(=O)NO)NC(=O)[C@@H]2CCCCN2C1=O
IC50 (Histone deacetylase): 3.96 nM

Second part, the compound after the results:

IC50 (Histone deacetylase): 1350 nM
SMILES: CC[C@@H](C)[C@@H]1NC(=O)[C@@H](Cc2ccc(OC)cc2)NC(=O)[C@H](CCCCCCN(O)C=O)NC(=O)[C@@H]2CCCCN2C1=O

IC50 (Histone deacetylase): 88500 nM
SMILES: CC[C@@H](C)[C@@H]1NC(=O)[C@@H](Cc2ccc(OC)cc2)NC(=O)[C@H](CCCCN(O)C(C)=O)NC(=O)[C@@H]2CCCCN2C1=O

IC50 (Histone deacetylase): 88400 nM
SMILES: CC[C@@H](C)[C@@H]1NC(=O)[C@@H](Cc2ccc(OC)cc2)NC(=O)[C@H](CCCCN(O)C(C)=O)NC(=O)[C@H]2CCCCN2C1=O

IC50 (Histone deacetylase): 58000 nM
SMILES: CC[C@@H](C)[C@@H]1NC(=O)[C@@H](Cc2ccc(OC)cc2)NC(=O)[C@H](CCCCCN(O)C(C)=O)NC(=O)[C@@H]2CCCCN2C1=O

IC50 (Histone deacetylase): 43800 nM
SMILES: CC[C@@H](C)[C@@H]1NC(=O)[C@@H](Cc2ccc(OC)cc2)NC(=O)[C@H](CCCCCN(O)C(C)=O)NC(=O)[C@H]2CCCCN2C1=O

IC50 (Histone deacetylase): 893 nM
SMILES: CC[C@@H](C)[C@@H]1NC(=O)[C@@H](Cc2ccc(OC)cc2)NC(=O)[C@H](CCCCCCN(O)C=O)NC(=O)[C@H]2CCCCN2C1=O
